Source: the supplement of paper PMC3493320

System: NCI-H295R
Experiment: IC50 (antiproliferative, ATP content)
Conditions: 48 h
Outline: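 Cell viability of adrenocortical carcinoma cells was assessed as ATP by CellTiter-Glo luminescence. Cells at 1500 per well in 1536-well plates, in serum-free DMEM with ITS, received compounds by pin transfer at 8 final concentrations (0.6 nM–46 µM) after overnight culture and were then held 48 h at 37 °C, 5% CO2. IC50 was calculated by logistic fitting against vehicle and positive-control wells, compounds with no concentration response being recorded as above the top dose.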

| IC50 | Structure (SMILES) |
| --- | --- |
| > 46 µM | CO[C@H]1/C=C/O[C@@]2(C)Oc3c(C)c(O)c4c(O)c(c5c(nc6cc(C)ccn65)c4c3C2=O)NC(=O)/C(C)=C\C=C\[C@H](C)[C@H](O)[C@@H](C)[C@@H](O)[C@@H](C)[C@H](OC(C)=O)[C@@H]1C |
| > 46 µM | NC(=O)C1c2ccccc2CCc2ccccc21 |
| > 46 µM | Cc1ccc(C(=O)Nc2ccc(S(=O)(=O)O)c3cc(S(=O)(=O)O)cc(S(=O)(=O)O)c23)cc1NC(=O)c1cccc(NC(=O)Nc2cccc(C(=O)Nc3cc(C(=O)Nc4ccc(S(=O)(=O)O)c5cc(S(=O)(=O)O)cc(S(=O)(=O)O)c45)ccc3C)c2)c1 |
| > 46 µM | O=C1C(C(O)=CC(O)=C2)=C2O[C@H]([C@](C=C5)=CC3=C5O[C@H](CO)[C@@H]([C@]4=CC(OC)=C(O)C=C4)O3)[C@H]1O |
| > 46 µM | Cc1c(-c2ccccc2)oc2c(C(=O)OCCN3CCCCC3)cccc2c1=O.Cl |
| > 46 µM | CC1=C(/C=C/C(C)=C/C=C/C(C)=C/C=C/C=C(C)/C=C/C=C(C)/C=C/C2=C(C)C(=O)CCC2(C)C)C(C)(C)CCC1=O |
| > 46 µM | CC(=O)NCCCS(=O)(=O)[O-].CC(=O)NCCCS(=O)(=O)[O-].[Ca+2] |
| > 46 µM | CCN1CCC[C@H]1CNC(=O)c1cc(S(N)(=O)=O)ccc1OC |
| > 46 µM | CO[C@H]1/C=C/O[C@@]2(C)Oc3c(C)c(O)c4c(O)c(cc([O-])c4c3C2=O)NC(=O)/C(C)=C\C=C\[C@H](C)[C@H](O)[C@@H](C)[C@@H](O)[C@@H](C)[C@H](OC(C)=O)[C@@H]1C.[Na+] |
| > 46 µM | OC(C#CCN1CCCC1)(c1ccccc1)c1ccccc1 |
| > 46 µM | CCCCOC(=O)CC(CC(=O)OCCCC)(OC(C)=O)C(=O)OCCCC |
| > 46 µM | CC(=O)Nc1ccccc1 |
| > 46 µM | CCC(=O)Nc1ccc(O)cc1 |
| > 46 µM | NS(=O)(=O)c2cc1c(/N=C\NS1(=O)=O)cc2Cl |
| > 46 µM | O=C([C@H](CC1=CN=CN1)N[C@]([C@H](CC2)NC2=O)=O)N(CCC3)[C@@H]3[C@](N)=O |
| > 46 µM | CO/N=C(\C(=O)N[C@@H]1C(=O)N2C(C(=O)[O-])=C(CSc3nc(=O)c([O-])nn3C)CS[C@H]12)c1csc(N)n1.O.O.O.[Na+].[Na+] |
| > 46 µM | Nc1ncnc2c1ncn2[C@@H]1O[C@H](CO)[C@@H](O)[C@H]1O |
| > 46 µM | Cl.c1ccc(CC2=NCCN2)cc1 |
| > 46 µM | CCCCC[C@H](O)/C=C/[C@H]1[C@H](O)CC(=O)[C@@H]1CCCCCCC(=O)O |
| > 46 µM | CC(S)C(=O)NCC(=O)O (stereo not drawn) |
| > 46 µM | C[C@H]1O[C@H]1P(=O)([O-])[O-].[Ca+2] |
| > 46 µM | CC(C)NCC(O)c1ccc(NS(C)(=O)=O)cc1.Cl (stereo not drawn) |
| > 46 µM | O=C(NCCc1c[nH]c2ccccc12)c1cccnc1 |
| > 46 µM | CCCNC(=O)NS(=O)(=O)c1ccc(Cl)cc1 |
| > 46 µM | Nc1ccc(C(=O)O)cc1 |
| > 46 µM | CC(C)CCCC(C)NC(C)C (stereo not drawn) |

| IC50 | Structure (SMILES) |
| --- | --- |
| > 46 µM | Cc1ccc(S(=O)(=O)NC(=O)NN2CCCCCC2)cc1 |
| > 46 µM | Nc1ccc(C=Cc2ccc(N)cc2S(=O)(=O)O)c(S(=O)(=O)O)c1 |
| > 46 µM | CCCCNC(=N)NC(=N)N |
| > 46 µM | Cc1[nH]c(=O)c(C#N)cc1-c1ccc2nccn2c1.Cl |
| > 46 µM | CN(CCOc1ccc(NS(C)(=O)=O)cc1)CCc1ccc(NS(C)(=O)=O)cc1 |
| > 46 µM | CCCC(=O)[O-].[Na+] |
| > 46 µM | CC(C(=O)O)c1ccc2c(c1)Cc1cccnc1O2 (stereo not drawn) |
| > 46 µM | CC(C)COCC(CN(Cc1ccccc1)c1ccccc1)N1CCCC1 (stereo not drawn) |
| > 46 µM | CCCCC1C(=O)N(c2ccccc2)N(c2ccc(O)cc2)C1=O (stereo not drawn) |
| > 46 µM | Nc1ccc(S(=O)(=O)Nc2ncccn2)cc1 |
| > 46 µM | CC(=O)N[C@@H](CC(C)C)C(=O)O |
| > 46 µM | O=C(C(CCC)CCC)O[C@@H]1C[C@H](CC2)[N@@+](C)(C)[C@H]2C1.[Br-] |
| > 46 µM | CN1C[C@@H]2C[C@H]1CN2c1cc2c(cc1F)c(=O)c(C(=O)O)cn2C1CC1 |
| > 46 µM | CC(CN1c2ccccc2Sc2ccccc21)N(C)C (stereo not drawn) |
| > 46 µM | [O-][n+]1cc[n+]([O-])c2ccccc21 |
| > 46 µM | Cc1ccc(C(C)C)c(O)c1 |
| > 46 µM | CCCCO |
| > 46 µM | Cc1ccc(C(=O)c2ccc(CC(=O)[O-])n2C)cc1.O.O.[Na+] |
| > 46 µM | CN1C(=O)C(=NNC(N)=S)c2ccccc21 |
| > 46 µM | Cc1c(C)c2c(c(C)c1O)CC[C@@](C)(CCC[C@H](C)CCC[C@H](C)CCCC(C)C)O2 |
| > 46 µM | Cc1cccc(C)c1Nc1ncccc1C(=O)O |
| > 46 µM | O=C([O-])c1cc(N=Nc2ccc(O)c(C(=O)[O-])c2)ccc1O.[Na+].[Na+] |
| > 46 µM | CCCn1c(=O)[nH]c(=O)c2[nH]cnc21 |
| > 46 µM | NCc1ccccc1Sc1ccccc1CO |
| > 46 µM | CC(C)(C)NCC(O)c1ccc(O)c(CO)n1.Cl (stereo not drawn) |
| > 46 µM | CC1(C)O[C@@H]2C[C@H]3[C@@H]4C[C@H](F)C5=CC(=O)CC[C@]5(C)[C@H]4[C@@H](O)C[C@]3(C)[C@]2(C(=O)CO)O1 |

| IC50 | Structure (SMILES) |
| --- | --- |
| > 46 µM | Nc1ncnc(Nc2ccccc2)n1 |
| > 46 µM | CCn1cc(C(=O)O)c(=O)c2cc(F)c(N3CCNCC3)cc21 |
| > 46 µM | CCCCCCCCCCCCCCCC(=O)OC(C)C |
| > 46 µM | NS(=O)(=O)c1cc2c(cc1Cl)NCNS2(=O)=O |
| > 46 µM | CCCCCCCCCCCCOCCCN |
| > 46 µM | CS(=O)(=O)c1ccc([C@@H](O)[C@@H](CO)NC(=O)C(Cl)Cl)cc1 |
| > 46 µM | NC[C@@H](C1)[C@]1([C@@]2=CC=CC=C2)C(N(CC)CC)=O.Cl |
| > 46 µM | O=C(O)CCNC(=O)c1ccc(/N=N/c2ccc(O)c(C(=O)O)c2)cc1 |
| > 46 µM | [H][C@@]23N(CCC4=C3NC5=C4C=CC(OC)=C5)C[C@@]1([H])C[C@@H](OC(COC6=CC=C(OC)C=C6)=O)[C@H](OC)[C@@H]([C@@](OC)=O)[C@]([H])1C2 |
| > 46 µM | O=C(O)[C@H](O)c1ccccc1 |
| > 46 µM | O=S(=O)([O-])CCCS(=O)(=O)[O-].[Na+].[Na+] |
| > 46 µM | O[C@H]1[C@H](O)[C@@H](O)[C@H](O)[C@@H](O)[C@H]1O |
| > 46 µM | NNc1nnc(NN)c2ccccc12 |
| > 46 µM | NC(N)=O |
| > 46 µM | CCOC(=O)[C@H](CCc1ccccc1)N[C@@H](C)C(=O)N1Cc2ccccc2C[C@H]1C(=O)O.Cl |
| > 46 µM | C[C@@H](O)[C@H]1C(=O)N2C(C(=O)O)=C(S[C@@H]3CN[C@H](C(=O)N(C)C)C3)[C@H](C)[C@H]12 |
| > 46 µM | O=C([C@H](C)CS)N(CCC1)[C@@H]1[C@@](O)=O |
| > 46 µM | CC(C)(C)NCC(O)COc1ccc(NC(=O)NC2CCCCC2)cc1 (stereo not drawn) |
| > 46 µM | O=C1c2ccccc2C(=O)c2c1ccc(O)c2O |
| > 46 µM | CN1CCN(C(=O)C2CCCCC2)CC1 |
| > 46 µM | C[Si](C)(C)O[Si](C)(C)C |
| > 46 µM | N[C@H](CO)C(=O)O |
| > 46 µM | Cc1ncc(COP(=O)(O)O)c(CN)c1O |
| > 46 µM | O=S1(=O)OC(c2ccc(O)cc2)(c2ccc(O)cc2)c2ccccc21 |
| > 46 µM | CC(=O)Nc1ccc(OCC(O)CNC(C)C)cc1 (stereo not drawn) |

| Structure (SMILES) | IC50 |
| --- | --- |
| COP(=S)(OC)Oc1ccc(S(=O)(=O)N(C)C)cc1 | > 46 µM |
| CCCCc1ncc(/C=C(\Cc2cccs2)C(=O)O)n1Cc1ccc(C(=O)O)cc1.CS(=O)(=O)O | > 46 µM |
| CN[C@@H]1[C@@H](O)[C@@H](O[C@@H]2[C@@H](O)[C@H](OC3OC(CN)=CCC3N)[C@@H](N)C[C@H]2N)OC[C@]1(C)O.CN[C@@H]1[C@@H](O)[C@@H](O[C@@H]2[C@@H](O)[C@H](OC3OC(CN)=CCC3N)[C@@H](N)C[C@H]2N)OC[C@]1(C)O.O=S(=O)(O)O.O=S(=O)(O)O.O=S(=O)(O)O.O=S(=O)(O)O.O=S(=O)(O)O (stereo partly drawn) | > 46 µM |
| Cn1sc(Cl)cc1=O | > 46 µM |
| CN[C@H]1C[C@@H](N)[C@H](O)[C@@H](O[C@@H]2O[C@H](CO)[C@H](O)[C@@H]3OC4(O[C@H]23)O[C@H]([C@H](N)CO)[C@H](O)[C@H](O)[C@H]4O)[C@@H]1O (stereo partly drawn) | > 46 µM |
| O=C1[O][Pt]2([NH][C@@H]3CCCC[C@H]3[NH]2)[O]C1=O | > 46 µM |
| C[C@]12CCC(=O)C=C1C=C[C@@H]1[C@@H]2CC[C@@]2(C)[C@H]1CC[C@@]2(O)CCC(=O)[O-].[K+] | > 46 µM |
| Cl.O=C(OCCN1CCCCC1)C(O)(c1ccccc1)c1ccccc1 | > 46 µM |
| Clc1ccc(Cl)cc1 | > 46 µM |
| CN[C@@H]1[C@@H](O)[C@@H](O[C@@H]2[C@@H](O)[C@H](O[C@H]3O[C@H](CN)[C@@H](O)[C@H](O)[C@H]3O)[C@@H](N)C[C@H]2NC(=O)C(O)CN)OC[C@]1(C)O.O=S(=O)(O)O (stereo partly drawn) | > 46 µM |
| CNC(=O)Oc1ccc2c(c1)[C@]1(C)CCN(C)[C@@H]1N2C | > 46 µM |
| OC[C@H](CC)NC(=O)[C@@H]2/C=C1/c3cccc4N\C=C(\C[C@H]1N(C)C2)c34 | > 46 µM |
| CCC1C(C)=NN=C(c2ccc(OC)c(OC)c2)c2cc(OC)c(OC)cc21 (stereo not drawn) | > 46 µM |
| Nc1nc(N)nc(-c2cc(Cl)ccc2Cl)n1.O=C(O)/C=C\C(=O)O | > 46 µM |
| O=C(C3=CC=CC=C3)O[C@@H]1C[C@H](CC2)N(C)[C@H]2[C@H]1[C@@](OC)=O.Cl | > 46 µM |
| CCCC(C)(COC(N)=O)COC(N)=O | > 46 µM |
| NC(=O)CN1CC(O)CC1=O (stereo not drawn) | > 46 µM |
| CCOC(=O)c1ccc(OC(=O)CCCCCNC(=N)[NH3+])cc1.CS(=O)(=O)[O-] | > 46 µM |
| O=C/C=C/c1ccccc1 | > 46 µM |
| C=C[C@H]1CN2CCC1C[C@@H]2[C@@H](O)c1ccnc2ccccc12 (stereo partly drawn) | > 46 µM |
| CCCCNCC(O)c1ccc(O)cc1 (stereo not drawn) | > 46 µM |
